Measurements published in US20190365927A1, “COMPOSITION FOR PHOTODYNAMIC THERAPY USING GENE EXPRESSING FLUORESCENT PROTEIN AND PHOTOSENSITIZER, AND PHOTODYNAMIC THERAPY METHOD USING SAME” (priority 2017, published 2019).

Assays:
[1] = test system: GFP+ A549, RFP+ A549 and YFP+ A549 cells; experiment: In vitro PDT of GFP+, RFP+ and YFP+ cells with photosensitizer, MTT analysis; type: cell-based, human; details: 1 μM, yellow laser light (570 nm), FIG. 21, 22
Experimental: Photo inducing death of GFP+, RFP+, and YFP+ cells via the photosensitizer was measured by MTT analysis. The specific experimental procedure is as follows.
To investigate photo inducing death of GFP+ cells, RFP+ cells, and YFP+ cells via the photosensitizer, rose bengal, hematoporphyrin (Sigma-aldrich #5518) or 5-ALA (5-Aminolevulinic acid hydrochloric, Sigma-aldrich # A3785) was diluted with RPMI medium containing 10% FBS. 1 μM concentration of rose bengal, hematoporphyrin or 5-ALA was prepared. Further, GFP+ A549 cells, RFP+ A549 cells and YFP+ A549 cells selected from the 1-4 were pre-incubated at a density of 5×10^3 cells per well on 96-well, black, and clear bottom plates. A549 cells with pcDNA 3.1 vector injected thereto were cultured as control. Then, each of the photosensitizers as produced was applied or not applied to the preincubated cells in the preincubated cells which in turn were cultured for 4 hours. After 4 hours, the cells were washed three times with PBS buffer. Irradiation or non-irradiation of blue laser light (488 nm; radiation dose rate=2 J/cm^2) or yellow laser light (570 nm; radiation dose rate=2 J/cm^2) thereto was carried out for 5 seconds. After irradiation or non-irradiation, a fresh culture medium was added to the wells. The cells were cultured again for 24 hours. MTT analysis was then performed.

[2] = test system: eGFP+ and eGFP− cells; experiment: Cytotoxicity with Ce6 and 650-nm red laser light, eGFP+ versus eGFP− cells; type: cell-based; details: FIG. 5
[3] = test system: GFP+ 4T1 cells, RFP+ 4T1 cells and control 4T1 cells; experiment: In vitro PDT of GFP+ and RFP+ cells with photosensitizer and red, blue or yellow light, MTT analysis; type: cell-based, mouse; details: FIG. 14; for cytotoxicity in control, RFP+ and GFP+ cells: 1 μM photosensitizer
Experimental: The cytotoxicity of RFP+ or GFP+ cells was measured by MTT analysis in the presence of Ce6 (Chlorine (e6)), rose bengal or tin ethyl etiopurpurin as photosensitizer after red light, blue light or yellow light irradiation. The specific experimental procedure is as follows.
Specifically, Ce6 (santacruz, sc-263067), rose bengal (Sigma Aldrich, 330000-5G) or tin ethyl etiopurpurin as a photosensitizer was diluted with RPMI-1640 medium containing 10% FBS. Thus, 1 μM concentration of Ce6 (Chlorine (e6)), rose bengal or tin ethyl etiopurpurin was prepared. Further, GFP+ 4T1 cells selected in the 1-4 and RFP+ 4T1 cells selected in the 1-3 were pre-cultured at a density of 2×10^4 cells/well in 96-well, black, and clear bottom plates. The pre-cultured cells were then incubated with Ce6, rose bengal or tin ethyl etiopurpurin for 4 h. 4T1 cells without RFP or GFP introduced thereto were used as controls. After 4 hours, the cells were washed three times with PBS buffer. Then, red laser light (650 nm; radiation dose rate=2 J/cm^2) or blue laser light (488 nm; radiation dose rate=2 J/cm^2) or yellow laser light (570 nm, radiation dose rate=2 J/cm^2) was irradiated thereto for 5 seconds. After the irradiation, the fresh culture medium was added to the wells. Then, the cells were cultured again for 24 hours. MTT analysis was then performed.

[4] = test system: RFP+ and RFP− 4T1 cells; experiment: In vitro PDT with tin ethyl etiopurpurin and yellow light over irradiation time, LDH and MTT analysis; type: cell-based, mouse; details: 1 μM, yellow laser light, in 2 seconds after light irradiation, FIG. 11, 12
Experimental: The yellow light was irradiated over time, and then photo inducing death of RFP+ and RFP− cells was measured by MTT analysis under the presence of tin ethyl etiopurpurin. The specific experimental procedure is as follows.
Specifically, tin ethyl etiopurpurin (Miravant Medical Technology Inc, USA) was diluted with RPMI-1640 medium containing 10% FBS to produce 1 μM concentration of tin ethyl etiopurpurin. Further, the RFP− or RFP+ 4T1 cells selected from the above 1-3 were pre-incubated in a 24-well plate at a density of 5×10^4 cells per well. The pre-cultured cells were then incubated with tin ethyl etiopurpurin for 4 h. After 4 hours, the cells were washed three times with PBS buffer. Then, the yellow laser light (570 nm; radiation dose rate=2 J/cm^2) was irradiated thereto for 0, 5 and 10 seconds. LDH analysis was then performed using the LDH Cytotoxicity Assay kit (Cayman Chemical Company, USA) according to the manufacturer's procedure. […] The absorbance was measured at 490 nm using a plate reader.
Further, the RFP− or RFP+ 4T1 cells selected from the 1-3 using the same method as described above were subjected to the yellow laser light (570 nm; radiation dose rate=2J/cm^2) for 0, 1, 2, 5, 7, or 10 secs. […] The absorbance of the reaction solution was measured at 570 nm. Cell viability was calculated by the following equation: […]

[5] = test system: RFP+ and RFP− 4T1 cells; experiment: In vitro PDT with varying tin ethyl etiopurpurin concentration, MTT analysis; type: cell-based, mouse; details: 0, 0.5, 1 and 2 μM, yellow laser light 5 seconds, FIG. 13
Experimental: After irradiation with yellow light, the photo inducing death of RFP+ and RFP− cells was measured by MTT analysis under the conditions of varying tin ethyl etiopurpurin concentrations. The specific experimental procedure is as follows.
Specifically, tin ethyl etiopurpurin was produced at 0, 0.5, 1 and 2 μM concentrations in the same method as described above. Then, the cells were cultured for 4 hours with RFP− or RFP+ 4T1 cells selected from the 1-3. MTT analysis was performed after irradiation of yellow laser light (570 nm; radiation dose rate=2 J/cm^2) thereto for 5 seconds.

[6] = test system: GFP+ 4T1 cells and RFP+ 4T1 cells; experiment: Experiment using artificial skin, MTT assay; type: cell-based, mouse; details: presence as well as absence of artificial skin (1 mm), 1 μM, yellow laser light, FIG. 17
Experimental: Actual skin condition was applied. photosensitizer was applied to GFP+ cell and RFP+ cell which in turn was irradiated with light. Then, cell death was measured by MTT assay. The specific experimental procedure is as follows.
Specifically, rose bengal and tin ethyl etiopurpurin at 1 μM concentration were produced in the same method as described in the 2-4. Then, the tin ethyl etiopurpurin was applied to RFP+ 4T1 cells selected from the 1-3. The rose bengal was applied to GFP+ 4T1 cells selected from 1-4. Then, the cells were cultured for 4 hours and washed three times with PBS buffer. Next, as shown in the schematic diagram of FIG. 16, an artificial skin tissue (AST, thickness 1 mm) (Geistlich Mucograft, Geistlich Pharma AG) was placed between the light source and the cell. Thus, the actual skin condition was established. Then, blue laser light (473 nm; radiation dose rate=2 J/cm^2) was applied to GFP+ cells for 5 seconds. Yellow laser light (580 nm; radiation dose rate=2 J/cm^2) were irradiated to RFP+ cells for 5 seconds. In 2 hours of the irradiation, the cells were washed twice with PBS buffer. MTT analysis was carried out in the same method as described in the Experimental Example 2-2. […]

Compound: Cl.NCC(=O)CCC(=O)O [5-ALA, 5-Aminolevulinic acid hydrochloride]
- cell death effect in YFP+ cell and RFP+ cell [1]: significant cell death effect
- cell death effect of RFP+ cell [1]: remarkable cell death effect

Compound: chlorine e6 [Ce6]
- cytotoxicity for eGFP+ versus eGFP− cells [2]: not different from each other
- cytotoxicity in control, RFP+ and GFP+ cells ([3]; red laser light (650 nm)): control, RFP+, and GFP+ cells showed cytotoxicity

Compound: CCOC(=O)C1=Cc2c3nc(cc4nc(cc5[n-]c(cc6[n-]c2c(C)c6CC)c(C)c5CC)C(C)=C4CC)[C@@H](C)[C@]13CC.[Cl-].[Cl-].[Sn] (racemic) [tin ethyl etiopurpurin]
- RFP+ cell death compared to RFP− cell, by irradiation duration [4]: RFP+ cell death increased considerably
- RFP+ cell death by treatment concentration [5]: increased remarkably
- cytotoxicity in control, RFP+ and GFP+ cells ([3]; yellow laser light): cytotoxicity was seen only in RFP+ cells
- degree of cytotoxicity in RFP+ cells versus GFP+ cells treated with rose bengal and blue laser light ([3]; 1 μM, yellow laser light): the degree of cytotoxicity was higher
- cell death level of RFP+ cells versus GFP+ cells treated with rose bengal and blue laser light [6]: the cell death level was higher
